Experimental data published in patent US10426755B2, “Methods for inhibiting cancer cells” (Chang Gung Memorial Hospital, Chiayi, priority 2015, dated 2019).

System: lung cancer cell lines (A549 and chemotherapy-resistant/metastatic H460)
Experiment: XTT proliferation assay, lung cancer cells
Format: cell-based
Details: DT 5, 10, 20 μM; gemcitabine hydrochloride and etoposide 10, 20 μM; 1-2 days; regardless of the dosage; also H460; FIG. 2
Procedure: The prostate cancer cells were plated at a density of 10^3 or 3×10^3 per well, in a 96-well plate, in a medium containing 10% Fetal bovine serum (FBS) (Gibco®, commercially available from Life Technologies, USA). Once the prostate cancer cells were attached to the culture dish, the 10% FBS medium was replaced with a second 10% FBS medium and each of the prostate cancer cell line was treated with 1, 5, and 10 μM of DT respectively for 1-2 days. The absorbance was measured using XTT assay kit (commercially available from Roche, Switzerland) at 492 nm using an ELISA reader (Bio-Rad Laboratories, USA). An in vitro evaluation of the effect of DT, gemcitabine (a chemotherapeutic agent) and etoposide (a chemotherapeutic agent) on the lung cancer cells was performed. The lung cancer cell lines, chemotherapy-resistant/metastatic H460 lung cancer cells (with pleural metastasis) and A549 lung cancer cells, were purchased from Bioresource Collection and Research Center, Taiwan. […] The absorbance was measured using XTT assay kit at 492 nm using an ELISA reader.

| Compound | inhibition of lung cancer proliferation, DT compared with gemcitabine and etoposide |
| --- | --- |
| Nc1ccn([C@@H]2O[C@H](CO)[C@@H](O)C2(F)F)c(=O)n1 [gemcitabine, reference compound] | DT is more effective than gemcitabine and etoposide |
| COc1cc([C@@H]2c3cc4c(cc3[C@@H](O[C@@H]3O[C@@H]5CO[C@@H](C)O[C@H]5[C@H](O)[C@H]3O)[C@H]3COC(=O)[C@H]23)OCO4)cc(OC)c1O [etoposide, reference compound] | DT is more effective than gemcitabine and etoposide |
